Here are results for one substance from patent US20040029215A1, “Process for producing rfrp” (priority 2000, published 2004).

In the assay the test system is cAMP production. The experiment in a line: activity of inhibiting the cAMP production (method of Example 1 of WO 00/29441). The assay is classed as cell-based. Particulars: polypeptide obtained in Example 4, compared with the synthetic polypeptide of the same sequence. The procedure:
The activity of inhibiting the cAMP production was determined for the polypeptide of the invention obtained in Example 4 (the polypeptide having the amino acid sequence of SEQ ID NO: 7) according to the method described in Example 1 of WO 00/29441.
(Cyclic AMP is a second messenger, typically raised through Gs and lowered through Gi signalling.)

Ends that are not written are not given here.

For the substance “polypeptide having the amino acid sequence of SEQ ID NO: 7: polypeptide of the invention consisting of 37 amino acid residues, excised from a recombinant RFRP-1/CS23 fusion protein by S-cyanation and ammonolysis (SLNFEELKDWGPKNVIKMSTPAVNKMPHSFANLPLRF; not fully specified (C-terminus))”, the “activity of inhibiting the cAMP production” value is given as “has the activity as much as the synthetic polypeptide”.
